Reference: ChEMBL document CHEMBL3286117, “Synthesis and pharmacological evaluation of analogues of benzyl quinolone carboxylic acid (BQCA) designed to bind irreversibly to an allosteric site of the M ₁ muscarinic acetylcholine receptor” (J Med Chem, 2014)
Activity calls are given as the source filed them. The rule behind the calls is not given here.

How the values were obtained:
[1] = biological target: T1, Muscarinic acetylcholine receptor M1 (Homo sapiens) (UniProt P11229); assay: Displacement of [3H]NMS from human M1 mAChR expressed in FlpIn-CHO cells after 4 hrs by microplate counting analysis; type: cell-based
T1 sequence (whole entry): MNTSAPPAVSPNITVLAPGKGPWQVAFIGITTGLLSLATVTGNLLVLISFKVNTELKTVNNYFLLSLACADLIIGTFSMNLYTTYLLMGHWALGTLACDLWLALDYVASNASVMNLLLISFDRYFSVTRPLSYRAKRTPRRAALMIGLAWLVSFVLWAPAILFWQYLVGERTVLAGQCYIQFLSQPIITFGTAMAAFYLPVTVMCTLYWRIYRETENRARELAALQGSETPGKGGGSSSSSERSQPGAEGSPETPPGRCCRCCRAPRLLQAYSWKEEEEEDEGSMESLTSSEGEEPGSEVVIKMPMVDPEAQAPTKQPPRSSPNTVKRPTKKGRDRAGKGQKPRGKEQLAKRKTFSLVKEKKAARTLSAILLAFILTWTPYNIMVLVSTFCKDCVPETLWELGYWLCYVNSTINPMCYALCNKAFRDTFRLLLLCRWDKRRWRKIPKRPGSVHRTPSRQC

[2] = biological target: T2, Muscarinic acetylcholine receptor M1 (Homo sapiens, UniProt P11229); assay: Activation of human M1 mAChR expressed in FlpIn-CHO cells assessed as […] ERK1/2 phosphorylation incubated for 5 mins by Alphascreen assay; type: cell-based
T2 sequence (P11229 whole entry): T1 sequence (whole entry)

[3] = biological target: T1, Muscarinic acetylcholine receptor M1 (Homo sapiens); assay: Irreversible binding to human M1 mAChR expressed in FlpIn-CHO cell membrane assessed as receptor alkylation incubated for 30 mins prior to [3H]NMS addition measured after 4 hrs by radioligand displacement analysis (reference value: 100%); type: cell membranes
[4] = biological target: T1, Muscarinic acetylcholine receptor M1 (Homo sapiens); assay: Irreversible binding to human M1 mAChR expressed in FlpIn-CHO cells assessed as receptor alkylation incubated for 30 mins prior to [3H]NMS addition measured 4 hrs after compound washout by whole cell radioligand displacement analysis relative to vehicle-treated control; type: cell-based

| SMILES | pKb [1] | EC50 [2] [nM] | Bmax [3] [%] | Activity [4] |
| --- | --- | --- | --- | --- |
| O=C(O)c1cn(Cc2ccc(S(=O)(=O)F)cc2)c2ccccc2c1=O | 3.97 | 316 |  |  |
| O=C(O)c1cn(Cc2ccc(N=C=S)cc2)c2ccccc2c1=O | 5.22 | 389 | 50 | inactive |
| COc1ccc(Cn2cc(C(=O)O)c(=O)c3ccccc32)cc1 |  |  | 90.8 | inactive |
| O=C(CBr)Nc1ccc(Cn2cc(C(=O)O)c(=O)c3ccccc32)cc1 | 4.72 | 1580 |  |  |
| O=C(O)c1cn(Cc2ccc(N3C(=O)C=CC3=O)cc2)c2ccccc2c1=O | 5.09 | 417 |  |  |
